The target in one experiment is T1, hMMP 1 (Homo sapiens, UniProt P03956).
T1 construct: host or cells: transfected HT-1080 cells
T1 sequence (P03956 100-469): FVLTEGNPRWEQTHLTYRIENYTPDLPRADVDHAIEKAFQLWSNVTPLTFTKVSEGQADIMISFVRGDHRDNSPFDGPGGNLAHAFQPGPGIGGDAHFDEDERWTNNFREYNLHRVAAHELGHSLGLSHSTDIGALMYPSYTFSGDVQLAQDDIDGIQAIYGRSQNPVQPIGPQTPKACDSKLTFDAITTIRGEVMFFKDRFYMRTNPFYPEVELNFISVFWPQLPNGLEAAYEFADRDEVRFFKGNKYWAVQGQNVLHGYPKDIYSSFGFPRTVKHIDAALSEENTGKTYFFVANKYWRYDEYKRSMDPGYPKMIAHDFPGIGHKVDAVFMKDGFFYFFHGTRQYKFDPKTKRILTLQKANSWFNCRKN
In words: In vitro metalloprotease inhibition, fluorogenic peptide substrate (recombinant human MMP-1, APMA activated). The class given is biochemical. Particulars: human MMP-1, room temperature, pH 7.5, 4 μM substrate. As for the experimental part:
(§1) Briefly, 4-aminophenylmercuric acetate (APMA) or trypsin activated MMPs were incubated with various concentrations of the inhibitor compound at room temperature for 5 minutes (0.02% 2-mercaptoethanol added to buffer for thiol compounds with 5 minutes or overnight incubation).
(§2) More specifically, recombinant human MMP-13 and MMP-1 enzymes were prepared in laboratories of the assignee. MMP-13 was expressed in baculovirus as a proenzyme, and purified first over a heparin agarose column and then over a chelating zinc chloride column. The proenzyme was activated by APMA for use in the assay. MMP-1 expressed in transfected HT-1080 cells was provided by Dr. Howard Welgus of Washington University, St. Louis, Mo. The enzyme was also activated using APMA and was then purified over a hydroxamic acid column.
(§3) The enzyme substrate is a methoxycoumarin-containing polypeptide having the following sequence:
(§4) MCA-ProLeuGlyLeuDpaAlaArgNH^2, wherein MCA is methoxycoumarin and Dpa is 3-(2,4--dinitrophenyl)-L-2,3-diaminopropionyl alanine.
(§5) Assays were carried out at room temperature, and dimethyl sulfoxide (DMSO) at a final concentration of 1 percent was used to dissolve inhibitor compound.
(§6) The assayed inhibitor compound in DMSO/buffer solution was compared to an equal amount of DMSO/buffer with no inhibitor as control using Microfluor™ White Plates (Dynatech). The inhibitor or control solution was maintained in the plate for 10 minutes and the substrate was added to provide a final concentration of 4 μM.
(§7) Inhibition was measured as a reduction in fluorescent intensity as a function of inhibitor concentration, using a Perkin Elmer L550 plate reader. The IC50 values were calculated from those values.

Another experiment deals with T2, hMMP 13 (Homo sapiens, UniProt P45452).
T2 construct: made in house
In words: In vitro metalloprotease inhibition, fluorogenic peptide substrate (recombinant human MMP-13, APMA activated). It counts as biochemical. Particulars: recombinant human MMP-13, room temperature, pH 7.5, 4 μM substrate. The protocol: as §1, §2, §3, §4, §5, §6, §7

The structures appear in SMILES notation.

For `COc1ccc(S(=O)(=O)CC(C)S)cc1` (racemic) [Example 1, (R,S)1-[(4-methoxyphenyl)-sulfonyl]propane-2-thiol], the results for the IC50 on hMMP 1 and on hMMP 13 were 4000 nM and 400 nM, respectively. On to `COc1ccc(S(=O)(=O)CCC(C)S)cc1` (racemic) [Example 2, (R,S)-4-[(4-methoxyphenyl)-sulfonyl]butane-2-thiol], for which the IC50 is 8000 nM on hMMP 1 and 33 nM at hMMP 13. The like results for `COC(=O)C(S)CCS(=O)(=O)c1ccc(OC)cc1` (racemic) [Example 10, (R,S)-Methyl-4-[(4-methoxyphenyl)sulfonyl]-2-mercaptobutanoate] were, in that order, 4000 nM and 15 nM.

Consider `COc1ccc(S(=O)(=O)CC(CS)NC(=O)CNC(=O)OCc2ccccc2)cc1` (racemic) [Example 33, 2-R,S-(N-carbobenzyloxy-glycyl)amino-3-(4-methoxybenzenesulfonyl)propanethiol], for which the IC50 at hMMP 1 stood at 900 nM; on hMMP 13 it was 42 nM. As to `COc1ccc(S(=O)(=O)[C@@H]2CCC[C@@H](S)C2)cc1` (relative stereo) [Example 7, (R,S)trans-3-[(4-methoxyphenyl)sulfonyl]cyclohexanethiol], at hMMP 1, the IC50 was determined as 1000 nM. Same read-out and setting: then `O=S(=O)(c1ccc(Sc2ccccc2)cc1)[C@@H]1CCC[C@@H](S)C1` (relative stereo) [Example 38, (R,S)trans-3-[(phenylthio)phenylsulfonyl]cyclohexanethiol], with more than 10000 nM; and `COc1ccc(S(=O)(=O)C[C@@H](C)CS)cc1` [Example 3, 3-[(4-methoxyphenyl)sulfonyl]-2(S)-methylpropanethiol], with more than 10000 nM. On to `O=S(=O)(CCCS)c1ccc(OCCCc2ccccc2)cc1` [Example 4, 3-[(4-{3-phenylpropyloxy)phenyl}sulfonyl]-propanethiol], for which the IC50 was more than 10000 nM on hMMP 1 and 1000 nM at hMMP 13. The matching figures for `CC(C)(C)OC(=O)COc1ccc(S(=O)(=O)CCCS)cc1` [Example 5]: more than 10000 nM and 400 nM. The matching figures for `O=C(O)COc1ccc(S(=O)(=O)CCCS)cc1` [Example 6]: more than 10000 nM and more than 10000 nM. Regarding `CCCC[C@]1(S(=O)(=O)c2ccc(OC)cc2)CCC[C@@H](S)C1` [Example 8, (R,S)3-butyl-3-[(4-methoxyphenyl)sulfonyl]cyclohexanethiol], the half-maximal inhibitory concentration (IC50) at hMMP 1 was more than 10000 nM; at hMMP 13, 1300 nM. For `COc1ccc(S(=O)(=O)C2CCC(S)C2)cc1` (stereo not drawn) [Example 9], the IC50 on hMMP 13 is 500 nM. Consider `COc1ccc(CS(=O)(=O)CCCS)cc1` [Example 11, (R,S)-3-[(4-methoxybenzyl)-sulfonyl]propane thiol], for which the concentration for half-maximal inhibition (IC50) at hMMP 1 and at hMMP 13 was more than 10000 nM in each case. `COc1ccc(S(=O)(=O)CCCS)cc1` [Example 13, 3-[(4-methoxyphenyl)sulfonyl]propane-1-thiol]: the IC50 was found to be 8000 nM on hMMP 1 and 70 nM on hMMP 13. In the case of `COc1ccc(S(=O)(=O)C[C@H](C)CS)cc1` [Example 14, 3-[(4-methoxyphenyl)sulfonyl]-2R-methylpropane-1-thiol], the values for the IC50 at hMMP 1 and at hMMP 13 were 6500 nM and 190 nM, respectively. For `COc1ccc(S(=O)(=O)CC(C)(C)CS)cc1` [Example 15, 3-[(4-methoxyphenyl)sulfonyl]-2,2-dimethylpropane-1-thiol], the IC50 at hMMP 13 came out at 700 nM.

With `CCC(CCS)S(=O)(=O)c1ccc(OC)cc1` (stereo not drawn) [Example 16, 3-[(4-methoxyphenyl)sulfonyl]-pentane-1-thiol], the IC50 turned out to be 600 nM at hMMP 1 and 4 nM on hMMP 13. The matching figures for `CCCCCCCCCC(CCS)S(=O)(=O)c1ccc(OC)cc1` (stereo not drawn) [Example 17, 3-[(4-methoxyphenyl)sulfonyl]-dodecane-1-thiol]: more than 10000 nM and 210 nM. On to `COc1ccc(S(=O)(=O)C(CCS)Cc2ccccc2)cc1` (stereo not drawn) [Example 18, 3-[(4-methoxyphenyl)sulfonyl]-4-phenylbutane-1-thiol], for which, at hMMP 1, the IC50 turned out to be 60 nM. `COc1ccc(S(=O)(=O)C(C)CCS)cc1` (stereo not drawn) [Example 19, 3-[(4-methoxyphenyl)sulfonyl]-butane-1-thiol]: the IC50 on hMMP 1 stood at 7000 nM; on hMMP 13 it was 200 nM. The like results for `CCCC(CCS)S(=O)(=O)c1ccc(OC)cc1` (stereo not drawn) [Example 20, 3-[(4-methoxyphenyl)sulfonyl]hexane-1-thiol] were, in that order, 1500 nM and 7 nM. The like results for `CCCCCC(CCS)S(=O)(=O)c1ccc(OC)cc1` (stereo not drawn) [Example 22, 3-[(4-methoxyphenyl)sulfonyl]-octane-1-thiol] were, in that order, 1100 nM and 0.5 nM.

Consider `COc1ccc(S(=O)(=O)CCC(S)c2ccccc2)cc1` (stereo not drawn) [Example 24, 3-[(4-methoxyphenyl)sulfonyl]-1-phenylpropane-1-thiol], for which the IC50 on hMMP 1 was determined as 3500 nM; at hMMP 13, 48 nM. The like results for `COc1ccc(S(=O)(=O)CCCCS)cc1` [Example 25, 4-[(4--methoxyphenyl)sulfonyl]butane-1-thiol] were, in that order, more than 10000 nM and 700 nM. The matching figures for `CCCCOc1ccc(S(=O)(=O)CCCS)cc1` [Example 27, 3-[(4-butoxyphenyl)sulfonyl]propane-1-thiol]: more than 10000 nM and 40 nM. For the molecule `CCCCOc1ccc(S(=O)(=O)C(CCS)Cc2ccccc2)cc1` (stereo not drawn) [Example 28, 3-[(4-butoxyphenyl)sulfonyl]-4-phenylbutane-1-thiol], the IC50 was found to be 9000 nM on hMMP 1 and 1.5 nM at hMMP 13. `CCCOc1ccc(S(=O)(=O)CCCS)cc1` [Example 29, 3-[(4-propoxyphenyl)sulfonyl]propanethiol]: the IC50 came out at 10000 nM on hMMP 1 and 55 nM at hMMP 13. The matching figures for `O=S(=O)(CCCS)c1ccccc1` [Example 30, 3-(phenylsulfonyl)propane-1-thiol]: more than 10000 nM and 900 nM. In the case of `CNC(=O)CC(CCS)S(=O)(=O)c1ccc(OC)cc1` (stereo not drawn) [Example 31], the IC50 at hMMP 1 came out at 4750 nM; at hMMP 13, 35 nM.

With `COc1ccc(S(=O)(=O)CC(CS)NC(C)=O)cc1` (stereo not drawn) [Example 32, N-[1-(mercaptomethyl)-2-[(4-methoxyphenyl)sulfonyl)ethyl)acetamide], the IC50 was 4000 nM on hMMP 1 and 70 nM at hMMP 13.

On to `COc1ccc(S(=O)(=O)CCS)cc1` [Example 34, 1-[(4-methoxyphenyl)sulfonyl]ethane-2-thiol], for which the values for the IC50 at hMMP 1 and on hMMP 13 were 8000 nM and 200 nM, respectively. For `O=S(=O)(CCCS)c1ccc(Oc2ccccc2)cc1` [Example 36, 3-[(4-phenoxy)phenylsulfonyl]propane-1-thiol], the values for the IC50 at hMMP 1 and on hMMP 13 were 2400 nM and 0.6 nM, respectively. The like results for `O=S(=O)(CCCS)c1ccc(-c2ccccc2)cc1` [Example 37, 3-[(4-phenyl)phenylsulfonyl]propane-1-thiol] were, in that order, more than 10000 nM and 170 nM.

What is called IC50 is the concentration needed to halve the response being measured.

The record behind these values is patent publication US6013649A, “Thiol sulfone metalloprotease inhibitors” (Monsanto Company, priority 1997, dated 2000).
